EP0536208B1, “1,2-DIHYDRO-3H-DIBENZISOQUINOLINE-1,3-DIONE ANTICANCER AGENTS” (RESEARCH CORPORATION TECHNOLOGIES, INC., priority 1990, dated 1992)
In brackets after ≈: the same amount, converted by molar mass. Read-outs that look alike come from different tables or passages of the source.

Columns and labels:
HT29p30 = test: Activity against human colon tumor cells (MTT assay, 3 day drug exposure); format: cell-based; settings: cells plated 24 hr. prior to drug addition, read-out: Concentration for 50% inhibition of colony formation for human colon tumors
Protocol: (§1) For example, the compounds of the present invention were evaluated for cytotoxic activities in cloned human colon carcinomas. The clonogenic assays were conducted in accordance with the procedure described hereinbelow: 1) Colony Forming Assays in Soft Agar: Fresh human or murine tumors are disaggregated into single cell suspensions using mechanical, hypoosmotic and/or enzymatic (trypsin) methods. The single cells (about 5 X 10^4-10^5) are plated in 35 mm plastic petri dishes onto a 1 ml "feeder layer" of 0.3% agar dissolved in growth medium containing 5-10% vol/vol of heat-inactivated fetal bovine serum, molten 0.3% agar and the antibiotics penicillin (100 u/mL) and streptomycin (100 ug/mL). Drug exposures can be performed for one hour or continuously (drugs added to final plating medium). Tumor cell colonies > 60 uM in size are counted by automated image analysis after 10-20 days of incubation in a humidified, 5-10% CO2-gassed environment maintained at 37°C. Inhibition of colony formation is calculated based on comparisons to control (untreated) plates wherein the growth of hundreds of colonies/plate is typical. (Salmon SE, et al., N Engl J Med 298(24):1321-1327, 1978).
(§2) Compounds of the present invention were tested for their in vitro activity in tumor cells sensitive and resistant to standard anti-cancer agents. The tumor cell lines used in this protocol are 8226 human Myeloma^1; 8226/Dox-40^2, L-1210/Murine Leukemia, multidrug resistant L-210/^3, 2780 Human Ovarian Cancer and 2780/AD^4. Each of these resistant cell lines is known as a multidrug resistant or "MDR" cell line. These cell lines produce a 170,00 molecular weight membrane protein termed the P-glycoprotein which acts as an active drug efflux pump. Thus, once a cell produces the P-glycoprotein, it has the capability of pumping out of the cell a large variety of unrelated natural products. […] The protocol for measuring the effectiveness of compounds of the present invention is as follows: 2) In Vitro Tumor Cell Viability Assays Using MTT-Dye: Tumors are processed into a single cell suspension as described above. The cells are plated at a concentration of 3-5 X 10^4/1 mL well into plastic 96-well plates. […] Afterwards the medium containing the drug is removed, the cells are "washed" by centrifugation in fresh medium or phosphate-buffered saline (pH 7.4). A tetrazolium dye is then added (3,4,5-dimethylthiazol-2-yl)-2,5-diphenyl tetrazolium bromide (MTT). This dye forms a colored formazan product upon activation by mitochondrial reductases in viable cells. Typically, the formazan product is solubilized in acid-propanol or DMSO. The intensity of the color is proportional to viable cell numbers and this is quantitated by spectrophotometric absorbance ([…]) on a micro ELISA plate reader. Test results are calibrated in % control absorbance from untreated tumor cells (Mossman T: J Immunol Meth 65:55-63, 1983). Using the above procedure, Compound 1 was tested for its cytotoxic activity with respect to various tumor cell lines.

SW80p105 = test: as above; format: cell-based; settings: cells plated 24 hr. prior to drug addition, read-out: Concentration for 50% inhibition of colony formation for human colon tumors
Protocol: as §1, §2

LOVOp32 = test: as above; format: cell-based; settings: cells plated 24 hr. prior to drug addition, read-out: Concentration for 50% inhibition of colony formation for human colon tumors
Protocol: as §1
(§3) Compounds of the present invention were tested for their in vitro activity in tumor cells sensitive and resistant to standard anti-cancer agents. The tumor cell lines used in this protocol are 8226 human Myeloma^1; 8226/Dox-40^2, L-1210/Murine Leukemia, multidrug resistant L-210/^3, 2780 Human Ovarian Cancer and 2780/AD^4. Each of these resistant cell lines is known as a multidrug resistant or "MDR" cell line. These cell lines produce a 170,00 molecular weight membrane protein termed the P-glycoprotein which acts as an active drug efflux pump. Thus, once a cell produces the P-glycoprotein, it has the capability of pumping out of the cell a large variety of unrelated natural products. […] The protocol for measuring the effectiveness of compounds of the present invention is as follows: 2) In Vitro Tumor Cell Viability Assays Using MTT-Dye: Tumors are processed into a single cell suspension as described above. The cells are plated at a concentration of 3-5 X 10^4/1 mL well into plastic 96-well plates. Growth medium containing 5-10% (vol/vol) heat-inactivated fetal bovine serum and penicillin/streptomycin (as above) is added prior to incubation at 37°C for six days. Afterwards the medium containing the drug is removed, the cells are "washed" by centrifugation in fresh medium or phosphate-buffered saline (pH 7.4). A tetrazolium dye is then added (3,4,5-dimethylthiazol-2-yl)-2,5-diphenyl tetrazolium bromide (MTT). This dye forms a colored formazan product upon activation by mitochondrial reductases in viable cells. Typically, the formazan product is solubilized in acid-propanol or DMSO. The intensity of the color is proportional to viable cell numbers and this is quantitated by spectrophotometric absorbance ([…]) on a micro ELISA plate reader. Test results are calibrated in % control absorbance from untreated tumor cells (Mossman T: J Immunol Meth 65:55-63, 1983). Using the above procedure, Compound 1 was tested for its cytotoxic activity with respect to various tumor cell lines.

205p14 = test: as above; format: cell-based; settings: cells plated 24 hr. prior to drug addition, read-out: Concentration for 50% inhibition of colony formation for human colon tumors
Protocol: as §1, §3

8226/DOX-40 = test: In vitro tumor cell viability assay using MTT dye; format: cell-based, Human; settings: Homo sapiens; 8226 Myeloma Cells Resistant; continuous exposure, MTT dye assay; read-out: IC50 VALUES
Protocol: as §2

8226 Human Myeloma = test: In vitro tumor cell viability assay using MTT dye; format: cell-based; settings: Homo sapiens; 8226 Myeloma Cells Sensitive; continuous exposure, MTT dye assay; read-out: IC50 VALUES
Protocol: as §2

L-1210/Murine Leukemia = test: In vitro tumor cell viability assay using MTT dye; format: cell-based; settings: Mus musculus
Protocol: as §2

Resistant L1210 = test: In vitro tumor cell viability assay using MTT dye; format: cell-based, Murine; settings: Mus musculus
Protocol: as §2

[1] = 144 h, Sensitive L1210, six day MTT assay, continuous drug exposure, read-out: Concentration for 50% inhibition of tumor cells
[2] = L1210 Leukemia Cells Sensitive, continuous exposure, MTT dye assay, read-out: IC50 VALUES
[3] = 144 h, Resistant L1210, six day MTT assay, continuous drug exposure, read-out: Concentration for 50% inhibition of tumor cells
[4] = L1210 Leukemia Cells Resistant, continuous exposure, MTT dye assay, read-out: IC50 VALUES

| SMILES | IC50 (HT29p30) | IC50 (SW80p105) | IC50 (LOVOp32) | IC50 (205p14) | IC50 (L-1210/Murine Leukemia; [1]) | IC50 (Resistant L1210; [3]) | other results |
| --- | --- | --- | --- | --- | --- | --- | --- |
| CN(C)CCN1C(=O)c2cccc3cc4cccc([N+](=O)[O-])c4c(c23)C1=O [Compound 2, 2-[2-(dimethylamino)ethyl]-1,2-dihydro-11-nitro-2H-dibenz(deh)isoquinoline-1,3-dione] | 1.75 µM | 2500 nM | 3000 nM | 3 µM |  |  |  |
| CN(C)CCN1C(=O)c2cccc3cc4cccc(N)c4c(c23)C1=O [Compound 3, 11-Amino-2-[2'-(dimethylamino)ethyl]-1,2-dihydro-3H-dibenz(deh)isoquinoline-1,3-dione] | 3.6 µM | 3100 nM | 4000 nM | 2.6 µM |  |  |  |
| O=C1c2cccc3cc4ccccc4c(c23)C(=O)N1CCN1CCCCC1 [Compound 7, 2-[2'-(N-piperidino)ethyl]-1,2-dihydro-3H-dibenz(deh)isoquinoline-1,3-dione] | 4.4 µM | 1000 nM | 750 nM | 10 µM |  |  |  |
| O=C1c2cccc3cc4ccccc4c(c23)C(=O)N1CCN1CCCC1 [Compound 8, 2-[2'-(N-pyrrolidino)ethyl]-1,2-dihydro-3H-dibenz(deh)isoquinoline-1,3-dione] | 2.6 µM | 900 nM | 1000 nM | 11.7 µM |  |  |  |
| CCN1CCCC(N2C(=O)c3cccc4cc5ccccc5c(c34)C2=O)C1 (stereo not shown) [Compound 9, 2-(1'-ethyl-3'piperidinyl)-1,2-dihydro-3H-dibenz(deh)isoquinoline-1,3-dione] | 11.2 µM | 3000 nM | 5600 nM | 17.5 µM |  |  |  |
| CN(C)c1ccc(N2C(=O)c3cccc4cc5ccccc5c(c34)C2=O)cc1 [Compound 10, 2-(4'-dimethylaminophenyl)-1,2-dihydro-3H-dibenz(deh)isoquinoline-1,3-dione] | 0.25 µM | 750 nM |  |  |  |  |  |
| CN(C)CCCN1C(=O)c2cccc3cc4ccccc4c(c23)C1=O [Compound 11, 2-[3'-(dimethylamino)propyl]-1,2-dihydro-3H-dibenz(deh)isoquinoline-1,3-dione] | 8.3 µM | 1300 nM | 1600 nM | 13.5 µM |  |  |  |
| O=C1c2cccc3cc4ccccc4c(c23)C(=O)N1CCCN(CCO)CCO [Compound 12] | 8.3 µM | 1300 nM | 800 nM | 11.5 µM |  |  |  |
| CN(C)CCN1C(=O)c2cccc3cc4c([N+](=O)[O-])cccc4c(c23)C1=O [Compound 13, 2-[2'-(dimethylamino)ethyl]-1,2-dihydro-8-nitro-3H-dibenz(deh)isoquinoline-1,3-dione] |  |  |  |  | 2.7 ng/mL (≈ 7.43 nM) | 3 ng/mL (≈ 8.26 nM) | IC50 (8226/DOX-40): 0.01 µg/mL (≈ 27.5 nM); IC50 (8226 Human Myeloma): 5 ng/mL (≈ 13.8 nM); IC50 (L-1210/Murine Leukemia; [2]): 2.5 ng/mL (≈ 6.88 nM); IC50 (Resistant L1210; [4]): 2.9 ng/mL (≈ 7.98 nM) |
| CN(C)CCN1C(=O)c2cccc3cc4c(N)cccc4c(c23)C1=O [Compound 14, 8-Amino-2-[2'-(dimethylamino)ethyl]-1,2-dihydro-3H-dibenz-(deh)isoquinoline-1,3-dione] |  |  |  |  | 5000 ng/mL (≈ 15000 nM) |  | IC50 (8226/DOX-40): > 0.1 µg/mL; IC50 (8226 Human Myeloma): > 100 ng/mL; IC50 (L-1210/Murine Leukemia; [2]): 5000 ng/mL (≈ 15000 nM); IC50 (Resistant L1210; [4]): > 5000 ng/mL |
| CCc1ccc2c3c(c4ccccc4cc13)C(=O)N(CCN(C)C)C2=O [Compound 15, 2-[2'-(dimethylamino)ethyl]1,2-dihydro-6-ethyl-3H-dibenz(deh)isoquinoline-1,3-dione] |  |  |  |  | 3.1 ng/mL (≈ 8.95 nM) | 3.1 ng/mL (≈ 8.95 nM) |  |
| CN(C)CCN1C(=O)c2cccc3cc4ccc(Cl)cc4c(c23)C1=O [Compound 16, 10-Chloro-2-[2'-(dimethylamino)ethyl]-1,2-dihydro-3H-dibenz(deh)isoquinoline-1,3-dione] |  |  |  |  | 2.5 ng/mL (≈ 7.09 nM) | 2 ng/mL (≈ 5.67 nM) |  |
| CN(C)CCN1C(=O)c2cccc3c(Cl)c4ccccc4c(c23)C1=O [Compound 17, 7-Chloro-2-[2'-(dimethylamino)ethyl]-1,2-dihydro-3H-dibenz(deh)-isoquinoline-1,3-dione] |  |  |  |  | 28 ng/mL (≈ 79.4 nM) | 30 ng/mL (≈ 85 nM) |  |
| Cc1c2ccccc2c2c3c(cccc13)C(=O)N(CCN(C)C)C2=O [Compound 19, 2-[2'-(Dimethylamino)ethyl]-1,2-dihydro-7-methyl-3H-dibenz(deh)isoquinoline-1,3-dione] |  |  |  |  | 3 ng/mL (≈ 9.03 nM) | 3 ng/mL (≈ 9.03 nM) |  |
| COc1c2ccccc2c2c3c(cccc13)C(=O)N(CCN(C)C)C2=O [Compound 20, 2-[2'-(Dimethylamino)ethyl]-1,2-dihydro-7-methoxy-3H-dibenz-(deh)isoquinoline-1,3-dione] |  |  |  |  | 3.2 ng/mL (≈ 9.18 nM) | 2.8 ng/mL (≈ 8.04 nM) |  |
| CN(C)CCN1C(=O)c2cccc3c(O)c4ccccc4c(c23)C1=O [Compound 21, 2-[2'-(dimethylamino)ethyl]-1,2-dihydro-7-hydroxy-3H-dibenz(deh)isoquinoline-1,3-dione] |  |  |  |  | 3.2 ng/mL (≈ 9.57 nM) | 3.2 ng/mL (≈ 9.57 nM) |  |
| CNCCN1C(=O)c2cccc3cc4ccccc4c(c23)C1=O [Compound 22, 1,2-Dihydro-2-[2'-(methylamino)ethyl]-3H-dibenz(deh)isoquinoline-1,3-dione] |  |  |  |  | 3.2 ng/mL (≈ 10.5 nM) | 2.7 ng/mL (≈ 8.87 nM) |  |
